Laboratory results: patent publication US6962909B2, “Treatment of neovascularization disorders with squalimine” (Genaera Corporation, priority 1995, dated 2005)
Converted amounts (≈) assume the structure as drawn.

Assays:
[1] = tested on: S. aureus; assay: Antibiotic activity, MIC; assay type: cell-based; settings: Staphylococcus aureus
[2] = tested on: E. coli; assay: Antibiotic activity, MIC; assay type: cell-based; settings: Escherichia coli
[3] = tested on: P. aerug; assay: Antibiotic activity, MIC
[4] = tested on: C. albicans; assay: Antibiotic activity, MIC; settings: Candida albicans
[5] = tested on: L1210 lymphoblastic leukemia cells; assay: Mouse model of L1210 leukemia
Method: C57B mice were inoculated with L1210 lymphoblastic leukemia cells at an inoculum that causes leukemia in 100% of animals. Mice received compound 1436 at 1, 5, 10 mg/kg every 3 days intraperitoneally.
Of particular interest is the hematological profile determined during the course of treatment. Animals were treated with cisplatin and compound 1436.

[6] = mice with 5 × 10^5 L1210 cells ip, cisplatin 8 mg/kg ip, compound 1436 10 mg/kg ip q4d

Structure (SMILES) | MIC [1] | MIC [2] | MIC [3] | MIC [4] | Hematological profile during treatment ([5]; by day 28) | RBC, Early Time [5, 6] | RBC, Late Time [5, 6] | WBC, Early Time [5, 6] | WBC, Late Time [5, 6]
CC(C)CCCC(C)[C@H]1CCC2C3CC[C@H]4C[C@H](NCCCCN)CC[C@]4(C)C3CC[C@@]21C (some centres unmarked) | 4 µg/mL (≈ 8.72 µM) | > 256 µg/mL | > 256 µg/mL | 64 µg/mL (≈ 139 µM) | – | – | – | – | –
CC(C)CCCC(C)[C@H]1CCC2C3CC[C@H]4C[C@@H](NCCCCN)CC[C@]4(C)C3CC[C@@]21C (some centres unmarked) | 16 µg/mL (≈ 34.9 µM) | > 256 µg/mL | > 256 µg/mL | > 256 µg/mL | – | – | – | – | –
CC(C)C(O)CCC(C)[C@H]1CCC2C3C(CC[C@@]21C)[C@@]1(C)CC[C@H](NCCCNCCCCN)C[C@@H]1C[C@H]3O (some centres unmarked) | 4 to 16 µg/mL (≈ 7.3 to 29.2 µM) | 32 µg/mL (≈ 58.4 µM) | 128 µg/mL (≈ 234 µM) | 64 µg/mL (≈ 117 µM) | – | – | – | – | –
N.N.[Cl][Pt][Cl] [Cisplatin, reference compound] | – | – | – | – | developed a profound anemia by day 28 | 9.4 10^6/mm^3 | 1.5 10^6/mm^3 | 8.1 10^3/mm^3 | 18.1 10^3/mm^3
CC(CC[C@@H](OS(=O)(=O)O)C(C)C)[C@H]1CCC2C3C(CC[C@@]21C)[C@@]1(C)CC[C@H](NCCCNCCCCN)C[C@@H]1C[C@H]3O (some centres unmarked) [drawing 43] | 0.5 to 1 µg/mL (≈ 0.796 to 1.59 µM) | 2 to 4 µg/mL (≈ 3.18 to 6.37 µM) | 16 µg/mL (≈ 25.5 µM) | 8 µg/mL (≈ 12.7 µM) | – | – | – | – | –
CC(C)CCCC(C)[C@H]1CCC2C3CC[C@H]4C[C@@H](NCCCNCCCCNCCCN)CC[C@]4(C)C3CC[C@@]21C (some centres unmarked) [drawing 47] | 16 µg/mL (≈ 27.9 µM) | 128 µg/mL (≈ 223 µM) | 64 µg/mL (≈ 112 µM) | 32 µg/mL (≈ 55.8 µM) | – | – | – | – | –
CC(COS(=O)(=O)O)C(=O)CCC(C)[C@H]1CCC2C3C(CC[C@@]21C)[C@@]1(C)CC[C@H](NCCCNCCCCN)C[C@@H]1C[C@H]3O (some centres unmarked) [drawing 63] | 8 µg/mL (≈ 12.5 µM) | 128 µg/mL (≈ 199 µM) | 128 µg/mL (≈ 199 µM) | 32 µg/mL (≈ 49.8 µM) | – | – | – | – | –
